Where “and” joins values, the source holds several entries; their conditions need not be identical. Equal entries are not always repeated.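 Tested at 5 concentrations; 48 h exposure; 96-well plates; endpoints linearly interpolated, else capped at highest concentration. The concentration for 50% growth inhibition is given as GI50. TGI: concentration producing complete growth inhibition.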

Among the test systems are HCT-15 colon; MOLT-4 leukemia; NCI-H23 lung; MALME-3M melanoma; OVCAR-4 ovarian; ACHN renal; HOP-92 NSCLC; K-562 leukemia; 786-0 renal; OVCAR-8 ovarian.
Test in all cases: inhibition of tumour cell growth, NCI panel, 48 h

`CC/C=C1\N=C(c2ccc(Cl)cc2)OC1=O`: the TGI with HCT-15 colon, in the assay with MOLT-4 leukemia, in the assay on NCI-H23 lung, in the assay with MALME-3M melanoma, in the assay with OVCAR-4 ovarian and in the assay on ACHN renal was above 100 µM throughout. For the same compound, the TGI in the assay with HOP-92 NSCLC, with K-562 leukemia, in the assay with 786-0 renal and in the assay with OVCAR-8 ovarian was above 100 µM in each case.
With `CC(=O)Nc1ccc(Sc2ccc([N+](=O)[O-])o2)cc1`, the GI50 is 0.806 µM in the assay with HCT-15 colon; 2.14 µM with MOLT-4 leukemia; 2.99 µM in the assay on NCI-H23 lung; 2.09 µM in the assay with MALME-3M melanoma; 2.27 µM in the assay on OVCAR-4 ovarian; 1.62 µM with ACHN renal. In addition, the GI50 in the assay with HOP-92 NSCLC is 1.76 µM; with K-562 leukemia, 2.22 µM; with 786-0 renal it was 2.69 µM; with OVCAR-8 ovarian, 3.06 µM. Also, the TGI with HCT-15 colon was 3.18 µM; in the assay on MOLT-4 leukemia it was 6.42 µM; with NCI-H23 lung, 10.2 µM; in the assay with MALME-3M melanoma it was 4.77 µM; with OVCAR-4 ovarian, 5.1 µM; in the assay on ACHN renal, 4.29 µM. Further, the TGI is 3.55 µM with HOP-92 NSCLC, above 30.8 µM with K-562 leukemia, 7.55 µM in the assay on 786-0 renal and 13.4 µM in the assay with OVCAR-8 ovarian.
Regarding `CCn1cc(/C=C/C(C)c2cn(CC)c(=O)[nH]c2=O)c(=O)[nH]c1=O` (stereo not drawn), the TGI in the assay on HCT-15 colon, in the assay with MOLT-4 leukemia, with NCI-H23 lung, with MALME-3M melanoma, in the assay on OVCAR-4 ovarian and with ACHN renal was above 100 µM each time. Further, the TGI in the assay on HOP-92 NSCLC, in the assay on K-562 leukemia, with 786-0 renal and in the assay on OVCAR-8 ovarian was above 100 µM each time.
Turning to `O=C1C(Br)=CC2(C=C1Br)CCN=c1c2c(O)c2nc3ccccc3c3ccnc1c23`, the GI50 was 0.829 µM in the assay on HCT-15 colon; 0.143 µM with MOLT-4 leukemia; 1.91 µM in the assay on NCI-H23 lung; 1.41 µM in the assay on MALME-3M melanoma; 0.788 µM with OVCAR-4 ovarian; 0.753 µM in the assay on ACHN renal. In addition, the GI50 in the assay with HOP-92 NSCLC is 0.593 µM; in the assay with K-562 leukemia it was 1.8 µM; in the assay with 786-0 renal it was 0.987 µM; in the assay with OVCAR-8 ovarian, 0.918 µM. Further, the TGI amounted to 1.59 µM in the assay with HCT-15 colon; 2.67 µM in the assay with MOLT-4 leukemia; 8.41 µM in the assay on NCI-H23 lung; 3.44 µM in the assay with MALME-3M melanoma; 2.22 µM with OVCAR-4 ovarian; 1.7 µM in the assay with ACHN renal. Further, the TGI in the assay with HOP-92 NSCLC turned out to be 2.38 µM; in the assay with K-562 leukemia, 7.9 µM; with 786-0 renal, 2.37 µM; in the assay with OVCAR-8 ovarian, 2.39 µM.
Regarding `C=C1C[C@](OC)([C@H](O)C(=O)N[C@@H](OC)[C@@H]2C[C@@H](O)C(C)(C)[C@@H](C[C@@H](COC)OC)O2)O[C@H](C)[C@@H]1C`, the GI50 with HCT-15 colon is 0.00284 µM; with MOLT-4 leukemia, 0.00437 µM; in the assay on NCI-H23 lung it was 0.00189 µM; in the assay with MALME-3M melanoma it was 0.000693 µM; with OVCAR-4 ovarian, 0.00227 µM; with ACHN renal, 0.00233 µM. In addition, the GI50 was 0.00286 µM in the assay on HOP-92 NSCLC, 0.0022 µM in the assay on 786-0 renal and 0.00322 µM in the assay with OVCAR-8 ovarian. The TGI in the assay on HCT-15 colon is 0.0248 µM; in the assay with MOLT-4 leukemia, above 1 µM; with NCI-H23 lung, 0.00544 µM; in the assay on MALME-3M melanoma it was 0.00343 µM; in the assay on OVCAR-4 ovarian, 0.0198 µM; in the assay on ACHN renal, 0.0114 µM. The TGI in the assay on HOP-92 NSCLC was determined as 0.00889 µM; with 786-0 renal, 0.0119 µM; in the assay with OVCAR-8 ovarian it was 0.0096 µM.
Turning to `COC1=CC(O)(CC(N)=O)c2ccccc2C1=O` (stereo not drawn), the TGI in the assay with HCT-15 colon, in the assay on MOLT-4 leukemia, in the assay with MALME-3M melanoma, in the assay on OVCAR-4 ovarian, in the assay on ACHN renal and with HOP-92 NSCLC was above 100 µM in each case. The TGI in the assay with K-562 leukemia, with 786-0 renal and with OVCAR-8 ovarian was above 100 µM in each case.
For `CC(=O)c1ccc(NC(=O)CSc2nnc(-c3cc(-c4ccc(C)cc4)nc4ccccc34)o2)cc1`, the GI50 with HCT-15 colon is 4.95 µM; in the assay with MOLT-4 leukemia it was 3.31 µM; in the assay on NCI-H23 lung it was 3.73 µM; with MALME-3M melanoma, 2.67 µM; in the assay with HOP-92 NSCLC it was 2.59 µM; in the assay with K-562 leukemia, 3.15 µM. Moreover, the GI50 with 786-0 renal is 1.61 µM; in the assay on OVCAR-8 ovarian it was 2.28 µM. The TGI in the assay with HCT-15 colon is above 100 µM; in the assay on MOLT-4 leukemia, above 100 µM; in the assay with NCI-H23 lung it was 61.3 µM; with MALME-3M melanoma, 8.34 µM; in the assay with HOP-92 NSCLC, 6.3 µM; in the assay on K-562 leukemia, above 100 µM. Also, the TGI in the assay on 786-0 renal was found to be 3.51 µM; in the assay with OVCAR-8 ovarian, 4.9 µM.
For `CC[C@H]1CN2CCc3cc(OC)c(OC)cc3[C@@H]2C[C@@H]1C[C@H]1NCCc2cc(O)c(OC)cc21`, the TGI in the assay with HCT-15 colon was 0.373 µM and 0.557 µM; in the assay on MOLT-4 leukemia it was 0.074 µM and 0.323 µM; with NCI-H23 lung it was 0.0584 µM and 0.115 µM; in the assay with MALME-3M melanoma, 0.0795 µM and 0.355 µM and 0.265 µM; with ACHN renal, 0.0758 µM; in the assay with HOP-92 NSCLC, 0.0742 µM and < 0.0176 µM. The TGI in the assay with K-562 leukemia is 2.65 µM; with 786-0 renal, 0.0381 µM; in the assay on OVCAR-8 ovarian, 0.0519 µM and < 0.0323 µM and 0.165 µM. Moreover, the GI50 was 0.0221 µM and < 0.0115 µM in the assay on ACHN renal; 0.00714 µM in the assay on 786-0 renal.
Turning to `COc1ccc(/C(Cl)=C(\C=O)c2ccc([N+](=O)[O-])cc2)cc1OC`, the TGI was 23.7 µM with HCT-15 colon; above 27.4 µM in the assay with MOLT-4 leukemia; 15.8 µM in the assay on NCI-H23 lung; 41 µM in the assay on MALME-3M melanoma; 25 µM in the assay on ACHN renal; 24.9 µM with HOP-92 NSCLC. Besides, the figures for the TGI with K-562 leukemia, with 786-0 renal and in the assay with OVCAR-8 ovarian were above 93.3 µM, 20.1 µM and above 86 µM, respectively.

For the origin of these results see PubChem BioAssay (NCI).
